Assay results from ChEMBL document CHEMBL1938312, “Design and combinatorial synthesis of a novel kinase-focused library using click chemistry-based fragment assembly” (Bioorg Med Chem Lett, 2012).
Activity calls are given as the source filed them. No cut-off for these calls is given here.

Legend:
[1] = molecular target: Tyrosine-protein kinase CSK (Homo sapiens) (UniProt P41240); experiment: Inhibition of CSK at 10 uM by colorimetric analysis
[2] = molecular target: Ephrin type-A receptor 2 (Homo sapiens) (UniProt P29317); experiment: Inhibition of EPHA2 at 10 uM by colorimetric analysis
Ephrin type-A receptor 2 (Homo sapiens), sequence (P29317 whole entry): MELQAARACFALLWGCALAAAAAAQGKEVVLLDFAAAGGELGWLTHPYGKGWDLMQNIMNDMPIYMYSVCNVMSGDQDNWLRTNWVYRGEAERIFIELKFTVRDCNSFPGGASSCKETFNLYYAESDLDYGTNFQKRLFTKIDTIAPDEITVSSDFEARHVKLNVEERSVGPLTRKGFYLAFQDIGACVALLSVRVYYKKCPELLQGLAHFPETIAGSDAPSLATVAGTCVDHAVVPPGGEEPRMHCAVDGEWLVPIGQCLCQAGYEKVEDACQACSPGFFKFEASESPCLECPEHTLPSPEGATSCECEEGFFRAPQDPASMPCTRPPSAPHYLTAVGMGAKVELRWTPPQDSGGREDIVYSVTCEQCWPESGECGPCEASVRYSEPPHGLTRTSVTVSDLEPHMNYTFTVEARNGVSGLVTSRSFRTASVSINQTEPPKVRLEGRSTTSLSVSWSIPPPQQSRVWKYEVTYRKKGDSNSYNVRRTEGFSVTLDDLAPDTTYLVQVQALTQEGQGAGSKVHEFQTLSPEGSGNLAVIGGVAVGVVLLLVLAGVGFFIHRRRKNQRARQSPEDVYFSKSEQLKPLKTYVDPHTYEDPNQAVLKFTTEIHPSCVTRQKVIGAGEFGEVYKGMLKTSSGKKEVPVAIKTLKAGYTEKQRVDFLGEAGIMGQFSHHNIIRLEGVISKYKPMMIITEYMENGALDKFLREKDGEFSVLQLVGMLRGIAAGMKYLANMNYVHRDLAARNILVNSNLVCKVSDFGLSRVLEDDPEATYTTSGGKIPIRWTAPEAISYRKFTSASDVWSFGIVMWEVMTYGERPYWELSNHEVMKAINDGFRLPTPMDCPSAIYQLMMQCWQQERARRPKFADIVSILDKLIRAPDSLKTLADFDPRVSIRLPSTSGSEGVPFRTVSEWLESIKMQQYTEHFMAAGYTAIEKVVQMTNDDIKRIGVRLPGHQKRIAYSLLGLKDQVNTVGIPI

[3] = molecular target: Protein-tyrosine kinase 2-beta (Homo sapiens) (UniProt Q14289); experiment: Inhibition of PYK2 at 10 uM by colorimetric analysis
[4] = molecular target: Angiopoietin-1 receptor (Homo sapiens) (UniProt Q02763); experiment: Inhibition of TIE2 at 10 uM by colorimetric analysis
Angiopoietin-1 receptor (Homo sapiens), sequence (Q02763 whole entry): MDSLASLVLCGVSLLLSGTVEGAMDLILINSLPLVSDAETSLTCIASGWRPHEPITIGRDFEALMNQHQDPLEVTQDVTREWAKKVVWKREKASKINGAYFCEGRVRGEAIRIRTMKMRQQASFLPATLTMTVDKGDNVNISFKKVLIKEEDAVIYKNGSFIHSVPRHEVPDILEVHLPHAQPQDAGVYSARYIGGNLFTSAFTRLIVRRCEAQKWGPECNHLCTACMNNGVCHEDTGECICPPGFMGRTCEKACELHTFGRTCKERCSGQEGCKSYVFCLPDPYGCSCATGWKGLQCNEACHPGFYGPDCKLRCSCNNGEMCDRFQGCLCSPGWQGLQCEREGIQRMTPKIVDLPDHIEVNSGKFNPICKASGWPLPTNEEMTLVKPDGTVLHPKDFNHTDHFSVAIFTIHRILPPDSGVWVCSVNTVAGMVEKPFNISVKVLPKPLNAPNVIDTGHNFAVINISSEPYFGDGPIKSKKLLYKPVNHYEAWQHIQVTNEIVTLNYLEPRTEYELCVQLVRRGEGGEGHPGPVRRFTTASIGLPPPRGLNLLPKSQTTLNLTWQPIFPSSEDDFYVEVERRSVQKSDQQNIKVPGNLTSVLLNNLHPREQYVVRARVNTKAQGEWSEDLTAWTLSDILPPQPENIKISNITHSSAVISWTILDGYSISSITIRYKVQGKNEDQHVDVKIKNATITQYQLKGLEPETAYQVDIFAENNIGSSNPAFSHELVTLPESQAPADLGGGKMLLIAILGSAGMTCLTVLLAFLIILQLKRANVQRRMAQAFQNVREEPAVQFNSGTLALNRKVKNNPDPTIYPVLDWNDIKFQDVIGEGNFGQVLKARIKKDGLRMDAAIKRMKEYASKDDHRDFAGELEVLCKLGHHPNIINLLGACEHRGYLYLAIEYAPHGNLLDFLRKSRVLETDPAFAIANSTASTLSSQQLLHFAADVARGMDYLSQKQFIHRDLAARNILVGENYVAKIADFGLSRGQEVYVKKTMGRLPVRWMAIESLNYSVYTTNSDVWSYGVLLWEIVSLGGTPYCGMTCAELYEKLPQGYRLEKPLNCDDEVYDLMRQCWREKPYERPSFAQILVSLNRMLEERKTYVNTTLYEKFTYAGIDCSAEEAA

[5] = molecular target: 5'-AMP-activated protein kinase subunit gamma-1 (Homo sapiens) (UniProt P54619); experiment: Inhibition of AMPKgamma1 at 10 uM by colorimetric analysis
5'-AMP-activated protein kinase subunit gamma-1 (Homo sapiens), sequence (P54619 whole entry): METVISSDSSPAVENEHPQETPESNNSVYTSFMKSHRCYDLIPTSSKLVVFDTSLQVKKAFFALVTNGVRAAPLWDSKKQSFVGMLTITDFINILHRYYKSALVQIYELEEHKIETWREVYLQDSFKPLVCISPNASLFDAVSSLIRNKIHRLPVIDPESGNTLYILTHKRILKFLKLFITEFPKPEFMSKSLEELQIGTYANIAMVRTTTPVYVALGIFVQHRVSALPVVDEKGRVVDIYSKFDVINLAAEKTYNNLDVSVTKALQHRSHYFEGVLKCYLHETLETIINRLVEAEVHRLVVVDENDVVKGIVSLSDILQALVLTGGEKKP

[6] = molecular target: Death-associated protein kinase 1 (Homo sapiens) (UniProt P53355); experiment: Inhibition of DAPK1 at 10 uM by colorimetric analysis
Death-associated protein kinase 1 (Homo sapiens), sequence (P53355 whole entry, looked up): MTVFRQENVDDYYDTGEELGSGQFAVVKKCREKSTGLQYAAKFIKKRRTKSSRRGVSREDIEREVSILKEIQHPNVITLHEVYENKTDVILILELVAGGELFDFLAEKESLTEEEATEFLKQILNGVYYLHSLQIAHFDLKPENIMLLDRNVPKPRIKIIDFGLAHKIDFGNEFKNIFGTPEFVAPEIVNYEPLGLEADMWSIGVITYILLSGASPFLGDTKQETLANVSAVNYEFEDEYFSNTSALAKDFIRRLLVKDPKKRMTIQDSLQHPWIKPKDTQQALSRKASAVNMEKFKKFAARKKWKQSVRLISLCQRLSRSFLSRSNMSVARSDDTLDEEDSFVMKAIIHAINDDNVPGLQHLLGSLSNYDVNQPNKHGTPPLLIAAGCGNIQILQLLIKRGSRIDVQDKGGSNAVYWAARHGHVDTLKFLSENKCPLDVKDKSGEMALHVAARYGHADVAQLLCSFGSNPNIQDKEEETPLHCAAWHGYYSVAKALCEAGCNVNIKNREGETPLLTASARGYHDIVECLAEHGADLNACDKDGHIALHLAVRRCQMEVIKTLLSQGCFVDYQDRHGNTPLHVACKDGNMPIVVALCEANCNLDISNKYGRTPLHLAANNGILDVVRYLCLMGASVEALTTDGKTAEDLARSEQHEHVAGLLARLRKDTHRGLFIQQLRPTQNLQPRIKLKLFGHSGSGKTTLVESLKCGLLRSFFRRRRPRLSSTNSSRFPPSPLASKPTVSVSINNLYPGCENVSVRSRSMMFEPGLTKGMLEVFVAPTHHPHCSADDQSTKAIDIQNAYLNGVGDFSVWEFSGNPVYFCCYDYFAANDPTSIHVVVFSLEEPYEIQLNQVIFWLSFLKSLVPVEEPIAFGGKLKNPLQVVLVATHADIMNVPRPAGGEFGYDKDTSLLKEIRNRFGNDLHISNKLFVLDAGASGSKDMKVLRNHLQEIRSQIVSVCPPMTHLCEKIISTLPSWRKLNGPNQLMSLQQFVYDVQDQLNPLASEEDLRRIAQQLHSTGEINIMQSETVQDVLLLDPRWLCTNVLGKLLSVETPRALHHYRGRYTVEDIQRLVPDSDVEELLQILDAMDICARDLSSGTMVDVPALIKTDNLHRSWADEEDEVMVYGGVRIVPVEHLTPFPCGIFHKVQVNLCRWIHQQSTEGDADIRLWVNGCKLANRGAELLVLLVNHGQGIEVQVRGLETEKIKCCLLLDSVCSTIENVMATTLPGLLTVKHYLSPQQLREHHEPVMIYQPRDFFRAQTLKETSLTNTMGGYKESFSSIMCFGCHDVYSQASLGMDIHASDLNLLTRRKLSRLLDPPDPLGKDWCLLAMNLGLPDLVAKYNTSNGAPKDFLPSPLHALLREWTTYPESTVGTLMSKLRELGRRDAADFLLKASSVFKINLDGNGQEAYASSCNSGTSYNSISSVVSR

[7] = molecular target: T1, Inhibitor of nuclear factor kappa-B kinase subunit beta (Homo sapiens) (UniProt O14920); experiment: Inhibition of IKK-beta at 10 uM by colorimetric analysis
T1 sequence (whole entry): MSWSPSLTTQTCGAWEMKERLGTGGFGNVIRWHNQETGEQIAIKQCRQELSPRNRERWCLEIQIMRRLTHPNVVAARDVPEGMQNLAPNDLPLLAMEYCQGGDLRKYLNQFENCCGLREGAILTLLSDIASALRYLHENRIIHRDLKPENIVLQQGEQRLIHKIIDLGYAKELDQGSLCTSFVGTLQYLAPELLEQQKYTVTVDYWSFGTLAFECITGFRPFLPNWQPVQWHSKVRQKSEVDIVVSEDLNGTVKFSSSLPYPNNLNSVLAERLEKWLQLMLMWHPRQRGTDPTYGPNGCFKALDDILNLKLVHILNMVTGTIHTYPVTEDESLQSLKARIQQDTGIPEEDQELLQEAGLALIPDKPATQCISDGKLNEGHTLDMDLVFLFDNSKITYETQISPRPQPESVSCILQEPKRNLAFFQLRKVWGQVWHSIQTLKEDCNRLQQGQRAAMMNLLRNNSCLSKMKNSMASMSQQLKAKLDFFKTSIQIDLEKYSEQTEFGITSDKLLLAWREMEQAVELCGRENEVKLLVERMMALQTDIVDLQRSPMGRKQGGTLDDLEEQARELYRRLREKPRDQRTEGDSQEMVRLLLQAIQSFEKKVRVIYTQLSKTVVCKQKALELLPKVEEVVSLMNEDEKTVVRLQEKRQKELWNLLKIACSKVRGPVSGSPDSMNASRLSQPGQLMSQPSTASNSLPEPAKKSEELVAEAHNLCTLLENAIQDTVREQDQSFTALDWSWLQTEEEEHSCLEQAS

[8] = molecular target: T2, Interleukin-1 receptor-associated kinase 4 (Homo sapiens) (UniProt Q9NWZ3); experiment: Inhibition of IRAK4 at 10 uM by colorimetric analysis
T2 sequence (whole entry): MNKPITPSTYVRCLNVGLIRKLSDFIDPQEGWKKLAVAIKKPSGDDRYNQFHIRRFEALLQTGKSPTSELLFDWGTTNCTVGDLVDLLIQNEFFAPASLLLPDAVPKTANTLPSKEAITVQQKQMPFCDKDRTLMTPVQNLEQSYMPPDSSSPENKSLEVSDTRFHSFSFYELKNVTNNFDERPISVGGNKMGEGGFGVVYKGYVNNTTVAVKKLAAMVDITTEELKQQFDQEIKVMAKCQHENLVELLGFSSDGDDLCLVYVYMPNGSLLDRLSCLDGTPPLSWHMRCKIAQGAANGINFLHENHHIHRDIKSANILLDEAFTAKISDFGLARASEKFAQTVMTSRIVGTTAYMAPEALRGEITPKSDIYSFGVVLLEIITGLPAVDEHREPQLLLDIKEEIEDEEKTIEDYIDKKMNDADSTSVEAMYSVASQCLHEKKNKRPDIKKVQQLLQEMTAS

[9] = molecular target: MAP kinase-activated protein kinase 2 (Homo sapiens) (UniProt P49137); experiment: Inhibition of MAPKAPK2 at 10 uM by colorimetric analysis
MAP kinase-activated protein kinase 2 (Homo sapiens), sequence (P49137 whole entry, looked up): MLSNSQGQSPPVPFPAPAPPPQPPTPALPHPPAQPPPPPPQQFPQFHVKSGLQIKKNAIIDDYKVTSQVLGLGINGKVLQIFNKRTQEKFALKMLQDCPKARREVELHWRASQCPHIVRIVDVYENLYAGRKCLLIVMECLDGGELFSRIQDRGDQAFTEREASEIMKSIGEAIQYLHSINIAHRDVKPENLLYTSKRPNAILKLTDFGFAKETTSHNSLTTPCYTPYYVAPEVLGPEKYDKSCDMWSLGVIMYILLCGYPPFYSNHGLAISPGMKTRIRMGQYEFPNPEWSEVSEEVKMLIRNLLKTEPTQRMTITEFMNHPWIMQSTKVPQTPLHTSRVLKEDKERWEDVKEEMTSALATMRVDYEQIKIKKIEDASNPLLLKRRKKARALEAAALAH

[10] = molecular target: T3, Serine/threonine-protein kinase Nek2 (Homo sapiens) (UniProt P51955); experiment: Inhibition of NEK2 at 10 uM by colorimetric analysis
T3 sequence (whole entry): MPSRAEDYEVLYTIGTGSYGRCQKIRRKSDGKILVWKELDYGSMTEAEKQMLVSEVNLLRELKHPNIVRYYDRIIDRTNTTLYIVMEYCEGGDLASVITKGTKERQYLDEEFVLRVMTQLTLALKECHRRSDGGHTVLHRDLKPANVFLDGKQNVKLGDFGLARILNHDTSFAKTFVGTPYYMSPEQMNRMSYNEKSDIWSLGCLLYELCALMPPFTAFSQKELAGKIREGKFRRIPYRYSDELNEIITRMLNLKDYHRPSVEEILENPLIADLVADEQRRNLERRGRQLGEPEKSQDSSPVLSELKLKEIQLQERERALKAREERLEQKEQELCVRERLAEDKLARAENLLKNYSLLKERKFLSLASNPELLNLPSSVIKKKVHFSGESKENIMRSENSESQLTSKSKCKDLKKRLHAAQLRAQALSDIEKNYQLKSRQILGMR

[11] = molecular target: cAMP-dependent protein kinase catalytic subunit alpha (Homo sapiens) (UniProt P17612); experiment: Inhibition of PKACa at 10 uM by colorimetric analysis
[12] = molecular target: T4, Serine/threonine-protein kinase Sgk1 (Homo sapiens) (UniProt O00141); experiment: Inhibition of SGK at 10 uM by colorimetric analysis
T4 sequence (whole entry): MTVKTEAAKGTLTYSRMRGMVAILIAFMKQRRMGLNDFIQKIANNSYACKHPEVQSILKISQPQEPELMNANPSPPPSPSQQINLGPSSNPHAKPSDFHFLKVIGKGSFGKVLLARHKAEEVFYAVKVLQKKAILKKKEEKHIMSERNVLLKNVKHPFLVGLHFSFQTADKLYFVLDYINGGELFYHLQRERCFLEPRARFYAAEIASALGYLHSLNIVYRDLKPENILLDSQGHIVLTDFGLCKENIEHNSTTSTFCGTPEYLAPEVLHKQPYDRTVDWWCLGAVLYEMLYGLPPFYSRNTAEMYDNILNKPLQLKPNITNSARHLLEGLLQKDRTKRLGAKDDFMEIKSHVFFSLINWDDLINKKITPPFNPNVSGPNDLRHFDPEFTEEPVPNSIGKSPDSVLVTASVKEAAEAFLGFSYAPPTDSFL

Tyrosine-protein kinase CSK (Homo sapiens), sequence (P41240 2-450 limits assumed): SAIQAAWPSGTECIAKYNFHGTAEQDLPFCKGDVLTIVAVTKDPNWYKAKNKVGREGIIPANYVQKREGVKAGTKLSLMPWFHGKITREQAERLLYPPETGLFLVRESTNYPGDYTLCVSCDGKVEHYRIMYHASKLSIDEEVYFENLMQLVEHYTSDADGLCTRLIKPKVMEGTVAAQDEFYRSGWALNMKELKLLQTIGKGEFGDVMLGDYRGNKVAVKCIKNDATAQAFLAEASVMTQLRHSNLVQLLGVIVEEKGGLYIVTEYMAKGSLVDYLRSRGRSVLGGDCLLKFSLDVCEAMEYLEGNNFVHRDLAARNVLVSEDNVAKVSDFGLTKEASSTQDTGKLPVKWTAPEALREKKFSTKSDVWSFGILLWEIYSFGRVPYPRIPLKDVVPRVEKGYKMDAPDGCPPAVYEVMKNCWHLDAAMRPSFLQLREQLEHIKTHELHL

SMILES	inhibition [1]	inhibition [2]	inhibition [3]	inhibition [4]	inhibition [5]	inhibition [6]	inhibition [7]	inhibition [8]	inhibition [9]	inhibition [10]	inhibition [11]	inhibition [12]
Clc1cccc(-n2nncc2-c2ccncc2)c1	inactive	inactive	inactive	inactive	Active	Active	Active	Active	Active	Active	Active	Active
Clc1cccc(-n2cc(-c3ccncc3)nn2)c1	inactive	inactive	inactive	inactive	Active	Active	Active	Active	Active	Active	Active	Active
Clc1ccc(-n2cc(-c3ccncc3)nn2)cc1	inactive	inactive	inactive	inactive	Active	Active	Active	Active	Active	Active	Active	Active
Clc1ccc(-n2nncc2-c2ccncc2)cc1	inactive	inactive	inactive	inactive	Active	Active	Active	Active	Active	Active	Active	Active
